Molecular target: T1, human SH-PTP2 SH2 domain (Homo sapiens, UniProt Q06124)
T1 construct: made in house; host or cells: E. coli (pGEX-2T)
T1 sequence (Q06124 1-106): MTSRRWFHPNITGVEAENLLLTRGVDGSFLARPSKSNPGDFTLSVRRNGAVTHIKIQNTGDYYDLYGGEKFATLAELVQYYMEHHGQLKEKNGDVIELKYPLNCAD
Experiment: ELISA-based SH2 domain / pY peptide binding assay, SH-PTP2 SH2 domain
Settings: Ki calculated from IC50 with the expanded equation
Experimental: The inhibitory activity of compounds at the different human SH2 domains was determined in vitro using SH2 domains expressed as fusion proteins in E. coli. The SH2 domains used herein were the human forms of the src SH2 domain, Grb2 SH2 domain, lck SH2 domain, fyn SH2 domain, SH-PTP2 SH2 domain, p85 SH2 domain and hcp SH2 domain.
Fusion proteins having the structure GST-X-SH2 were prepared as described in the GST gene fusion kit system available from Pharmacia (New Jersey). GST is the tagging sequence glutathione s-transferase epitope (SEQ ID NO: 8) for fyn, Grb2 and SH-PTP2 and is the tagging sequence glutathione s-transferase epitope (SEQ ID NO: 9) for p85. SH2 refers to the SH2 domains of fyn, Grb2, p85 and SH-PTP2 which were expressed and purified using glutathione Sepharose 4B (Pharmacia) according to "Current Protocols in Molecular Biology", ed. FM Ausubel et al., pub. John Wiley and Sons, Inc., (1995), p 16.7.1. X is an appropriate linker, preferably of 6 to 21 base pairs, used to keep the SH2 construct in frame and complement cloning. As such, the sequence of X is not critical. One skilled in the art can readily construct the appropriate linker. The DNA sequence encoding each GST-X-SH2 fusion protein was designed such that the indicated restriction sites (BamH1 and EcoRI) flank the SH2 region. […]

Ki: > 1000 µM
Compound: CCCCCCNC(=O)[C@H]1CC[C@H](CNC(=O)c2ccc(C(=O)c3ccc(C(=O)O)cc3)cc2)CC1 [Compound 6, 4-carboxy-benzophenone-4-carboxamido-trans-4-methyl-cyclohexyl-N-hexyl carboxamide]
